The text below walks through data of PMC7961094 (The Journal of Biological Chemistry, 2021).

Read-outs that look alike come from different tables or passages of the source.

One assay relates to PHD2. The conditions noted are these: read-out: Km (app; α-KG), cited from earlier work.
The target of another assay is PHD2_181-426 (Homo sapiens, UniProt Q9GZT9). As to the kind of experiment: 2,4-DNPH α-KG assay with PHD2. Here is the method: (§1) During the course of the reaction, 50 μl was withdrawn at various time points from the reaction tube and quenched in 50 μl of 10% TCA at predetermined time points and vortexed.
PHD2_181-426, sequence (Q9GZT9 181-426): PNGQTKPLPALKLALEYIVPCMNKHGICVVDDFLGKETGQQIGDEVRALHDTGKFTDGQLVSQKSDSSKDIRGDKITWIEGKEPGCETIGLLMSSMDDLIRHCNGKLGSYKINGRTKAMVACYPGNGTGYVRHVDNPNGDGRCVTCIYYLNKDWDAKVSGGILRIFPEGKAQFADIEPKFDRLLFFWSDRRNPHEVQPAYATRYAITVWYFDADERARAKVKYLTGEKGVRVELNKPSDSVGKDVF
(§2) Subsequent measurements were performing at time points conforming to those requirements. Initial velocities at each substrate concentration were fit using linear regression to generate Michaelis–Menten titration curves.
(§3) All data were plotted using GraphPad Prism 8.0 and presented as a mean ± standard deviation of three independent biological replicates, unless otherwise stated. For kinetic data, Km was determined by fitting the data to a least squares ordinary fit Michealis–Menten function, while IC50 values were obtained from fitting the data to a three-parameter log(inhibitor) versus response function. Where applicable, two-tailed t tests were performed to determine statistical significance using a p-value of 0.05.

For assay [1], the system named is PHD3. The conditions noted are these: read-out: Km (app; α-KG), cited from earlier work.
Assay [2] deals with glutamate dehydrogenase (GDH). As to the kind of experiment: 2,4-DNPH oxidative deamination assay with GDH. Format: biochemical, thermophilic bacterium species. The following applies: 0.25 μM GDH; for IC50: 5 mM L-glutamate, 2.5 mM NAD^+, brackets 95% confidence interval. The protocol: Next, we selected two reported GDH inhibitors to assess their IC50 values using the 2,4-DNPH α-KG assay. For these experiments, we held glutamate and NAD^+ at saturating concentrations of 5 mM and 2.5 mM, respectively, while varying the concentrations of inhibitors. Hexachlorophene (HCP) is a noncompetitive inhibitor of GDH that binds to the inner core of the GDH hexamer, thereby preventing the conformational changes necessary for catalytic turnover ([60]). […] Conversely, 2-Methyleneglutarate (2-MG) was selected as a nonaromatic, competitive inhibitor of GDH with respect to L-glutamate ([61]).
Lyophilized GDH was resuspended in a solution of 50 mM Tris-base buffer (pH 8.0) and […]. Each oxidative deamination reaction was carried out in a final volume of 0.5 ml. The cofactor mix was prepared with 50 mM Tris-base buffer (pH 8.0), 1 mM EDTA, 5 mM L-glutamate and 2.5 mM NAD^+ and commenced by adding 0.25 μM GDH. The reaction was allowed to proceed at 50 °C for up to 30 min. During the course of the reaction, 50 μl was withdrawn at various time points from the reaction tube and quenched in 50 μl of 10% TCA at predetermined time points and vortexed. The downstream processing steps are identical to those of the 2,4-DNPH α-KG assay.
as §2, §3

For assay [3], the target named is PHD3 (Homo sapiens, UniProt Q9H6Z9). In words: 2,4-DNPH α-KG assay with PHD3. Here is the method:
as §1, §2, §3

PHD3 (Homo sapiens, UniProt Q9H6Z9), sequence (Q9H6Z9 whole entry): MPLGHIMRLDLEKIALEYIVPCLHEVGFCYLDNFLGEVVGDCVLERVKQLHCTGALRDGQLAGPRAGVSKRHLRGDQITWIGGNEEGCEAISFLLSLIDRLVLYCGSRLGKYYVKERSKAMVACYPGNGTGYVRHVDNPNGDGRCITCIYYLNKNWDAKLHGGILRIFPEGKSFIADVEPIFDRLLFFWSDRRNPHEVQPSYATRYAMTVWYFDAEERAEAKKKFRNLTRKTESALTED

For orientation: Km means the concentration of substrate that gives half-maximal velocity. As for `O=C(O)CCC(=O)C(=O)O` [α-ketoglutarate], the Km was 0.343 ± 0.028 µM with PHD2 (PHD2, ref Dao et al. ([52])); 60 µM with PHD2 (PHD2, ref Hirsila et al. ([2])); 1 ± 0.2 µM in the assay with PHD2 (PHD2, ref Koivunen et al. ([51])); 55 ± 1.1 µM with PHD2 (PHD2^181–426, ref Ehrismann et al. ([11])); 25 ± 6 µM in the assay on PHD2 (PHD2^181–426, ref McNeill et al. ([10])); 13 ± 2 µM in the assay with PHD2 (PHD2^181–426, ref Tarhonskaya et al. ([19])). Besides, the Km with PHD3 [1] (ref Hirsila et al. ([2])) is 55 µM; in the assay on PHD3 [1] (ref Koivunen et al. ([51])), 12 ± 4 µM; in the assay with PHD3 [1] (ref Oehme et al. ([25])), 3 µM. In addition, the “kcat (α-ketoglutarate titration)” value at PHD2_181-426 was determined as 0.0717 ± 0.005 s⁻¹.
For orientation: IC50 means the concentration at which inhibition is half-maximal. Higher therefore signals weaker potency. In assay [2], `Oc1c(Cl)cc(Cl)c(Cl)c1Cc1c(O)c(Cl)cc(Cl)c1Cl` [HCP, Hexachlorophene, reference compound] displayed an IC50 of 1.52 µM. This counts as single-digit micromolar.
For `N[C@@H](CCC(=O)O)C(=O)O` [glutamate, L-glutamate], in assay [2] (increasing L-glutamate, saturating other reagents), the kcat for glutamate amounted to 4.47 ± 0.067 s⁻¹. In addition, the Km in assay [2] (increasing L-glutamate, saturating other reagents, read-out: Km for glutamate) came out at 746 ± 58.6 µM.
With `NC(=O)c1ccc[n+]([C@@H]2O[C@H](COP(=O)([O-])OP(=O)(O)OC[C@H]3O[C@@H](n4cnc5c(N)ncnc54)[C@H](O)[C@@H]3O)[C@@H](O)[C@H]2O)c1` [NAD^+, nicotinamide adenine dinucleotide], in assay [2] (increasing NAD^+, saturating other reagents), the “kcat for NAD^+” value was determined as 4.2 ± 0.13 s⁻¹. Also, the Km in assay [2] (increasing NAD^+, saturating other reagents, read-out: Km for NAD^+) came to 517 ± 55.8 µM.
On to `C=C(CCC(=O)O)C(=O)O` [2-MG, 2-methyleneglutaric acid, reference compound], for which the IC50 in assay [2] and in assay [2] (listed as 2-Methyleneglutarate (2-MG)) was 24.9 µM each time.
On to `[Cl-].[Cl-].[Co+2]` [CoCl2, cobalt (II) chloride, reference compound], for which the IC50 on PHD2_181-426 is 6.4 µM; against PHD3 [3] (0.5 mM α-ketoglutarate, 100 μM HIF peptide, 10 μM PHD3, brackets 95% confidence interval) it was 79.3 µM.
At PHD3 [3], `O=C(O)CNC(=O)C(=O)O` [NOG, N-oxalylglycine] returned an IC50 of 51.3 µM.
